Assay results taken from US20250346550A1, “METHODS OF MODULATING ENDONUCLEASE G USING RESVERATROL AND ITS DERIVATIVES” (THE REGENTS OF THE UNIVERSITY OF COLORADO A BODY CORPORATE, priority 2022, published 2025).

Assays:
[1] = HPLC analysis of resveratrol isomer composition / interconversion; type: physicochemical; conditions: UV irradiation 4 hours at 0° C.; for fraction converted into the other isomer on UV exposure: pure isomer, 50 μM solution
Description: FIG. 2. High performance liquid chromatography analysis of resveratrol isomers. a, b, e-g HPLC profiles and peak retention times detected at 303 nm of 1.0 μg commercially “pure” trans-resveratrol (a), 1.0 μg of commercially “pure” cis-resveratrol (b), 20 μL of 50 μM aged trans-resveratrol solution (e), 20 μL of 50 μM commercially “pure” trans-resveratrol solution subjected to UV irradiation for 4 hours at 0° C. (f), and 20 μL of 50 μM commercially “pure” cis-resveratrol solution subjected to UV irradiation for 4 hours at 0° C. (g). Due to the different extinction coefficients of the resveratrol isomers, standard curves of trans-resveratrol (c) and cis-resveratrol (d) were generated by analyzing a series of working solutions for each isomer. Good linear correlations (R^2≥0.9999) were acquired over the concentration range of 0-45 μM trans-resveratrol (c) and 0-110 μM cis-resveratrol (d), with the corresponding regression equations. (h) Compositions of the resveratrol isomers in the indicated samples, without or with UV irradiation (see Methods) as quantified by HPLC.
To confirm the interconversion between trans-resveratrol and cis-resveratrol and to quantitatively measure the ratio of cis- and trans-isomers in the resveratrol solution, we performed high performance liquid chromatography (HPLC) analysis, which can effectively separate trans- and cis-isomers (FIG. 2a, b). […] This ratio of trans- and cis-resveratrol accounts for the unexpected PME inhibition by the aged trans-resveratrol solution (FIG. 1a, b), because cis-resveratrol could inhibit PME (FIG. 1d) and became the dominant isomer in this aged trans-resveratrol solution (FIG. 2h).

CPS-6 = target: T1, CPS-6 (Caenorhabditis elegans, UniProt Q95NM6); assay: plasmid DNA cleavage assay; type: biochemical, C. elegans; conditions: 20 μM; for effect on CPS-6 nuclease activity: 10 ng CPS-6, pPD49.78 plasmid DNA
T1 construct: Recombinant CPS-6 protein was incubated with the supercoiled plasmid DNA substrate
T1 sequence (Q95NM6 1-308): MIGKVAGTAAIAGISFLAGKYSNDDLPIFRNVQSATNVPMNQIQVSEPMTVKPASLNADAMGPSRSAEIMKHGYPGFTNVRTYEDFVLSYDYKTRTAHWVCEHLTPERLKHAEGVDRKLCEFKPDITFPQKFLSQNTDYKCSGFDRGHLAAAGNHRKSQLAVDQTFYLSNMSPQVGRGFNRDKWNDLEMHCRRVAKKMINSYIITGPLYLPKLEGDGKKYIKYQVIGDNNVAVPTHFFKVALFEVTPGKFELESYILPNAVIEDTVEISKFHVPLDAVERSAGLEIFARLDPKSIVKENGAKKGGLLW
Description: FIG. 3. Resveratrol isomers target CPS-6 to affect PME. a, b, Both cis-resveratrol and trans-resveratrol act paternally to affect PME. The numbers of MTR-stained paternal mitochondrial clusters in embryos at 64-cell (a) or 16-cell (b) stage from the indicated crosses were scored. N2 males or hermaphrodites were pretreated with 0.25% ethanol (Mock), 50 μM cis-resveratrol (a), or 50 μM trans-resveratrol (b) as indicated before mating. c-g, Quantification of MTR-stained paternal mitochondrial clusters in 64-cell embryos from the indicated crosses treated with 0.25% ethanol (Mock), 50 μM cis-resveratrol, and 50 μM trans-resveratrol, respectively. Alleles used are lgg-1(bp523), cps-6(tm3222) and rad-23(tm2595). Data are mean s.e.m; n≥15 embryos (a) and n≥20 embryos (b, c-g) were scored in each experiment. ***P<0.001; n.s., not significant, two-sided, unpaired t-test. h, Resveratrol isomers enhance or inhibit the nuclease activity of CPS-6 in a plasmid DNA cleavage assay. 10 ng of CPS-6 were incubated with 0.25% ethanol (Mock), 20 μM cis-resveratrol, or 20 μM trans-resveratrol in dark at 4° C. for 1.5 hours, before 1 μg of the pPD49.78 plasmid DNA were added to the reactions. After further incubation at 30° C. for 1 hour, the reactions were resolved on a 1% agarose gel. Three different forms of plasmid DNA are indicated.
FIG. 11. Stabilized trans-resveratrol enhances the nuclease activity of CPS-6 in a plasmid DNA cleavage assay and is resistant to UV irradiation. 10 ng of CPS-6 were incubated with 0.25% ethanol (Mock), 20 μM locked trans-resveratrol with or without UV irradiation, 20 μM trans-resveratrol with or without UV irradiation, and 20 μM cis-resveratrol with or without UV irradiation, respectively, in dark at 4° C. for 1.5 hours, before 1 μg of the pPD49.78 plasmid DNA were added to the reactions. After further incubation at 30° C. for 1 hour, the reactions were resolved on a 1% agarose gel. Three different forms of plasmid DNA are indicated. Resveratrol isomers or derivative were subjected to UV irradiation for 3 hours.
Because resveratrol is an antioxidant and the endonuclease activity of CPS-6 is regulated by redox conditions both in vitro and in vivo, we investigated the possibility that resveratrol isomers could directly affect the nuclease activity of CPS-6 using a plasmid DNA cleavage assay. Recombinant CPS-6 protein was incubated with the supercoiled plasmid DNA substrate in the presence or absence of 20 μM trans-resveratrol or cis-resveratrol and the reactions were resolved by an agarose gel. […] Since the nuclease activity of CPS-6 is required for PME, these in vitro results are consistent with the in vivo observations that trans-resveratrol enhances and cis-resveratrol inhibits PME.

Compound | cis-resveratrol remaining in the mixture after UV exposure [1] [%] | fraction converted into the other isomer on UV exposure [1] [%] | effect on CPS-6 nuclease activity (CPS-6) | effect on CPS-6 nuclease activity after UV irradiation of the compound (CPS-6; compound UV irradiated for 3 hours (FIG. 11))
Oc1ccc(/C=C\c2cc(O)cc(O)c2)cc1 [cis-resveratrol] | 60 | 40 | inhibits CPS-6 nuclease activity | –
Oc1ccc(/C=C/c2cc(O)cc(O)c2)cc1 [trans-resveratrol, 3,5,4′-trihydroxy-trans-stilbene] | – | 68.5 | enhances the endonuclease activity of CPS-6 | lost its activity to enhance the nuclease activity of CPS-6
